≈ marks a conversion by molar mass, not a printed value. Where two headings read alike, the source gives them in different places.
Key:
[1] = system: Leishmania amazonensis promastigote forms; assay: Leishmanicidal MTT assay on promastigote forms; type: cell-based; details: for IC50: Leishmania amazonensis, read-out: L. amazonensis IC50
[2] = Macrophages in vitro cytotoxic assay (MTT); details: mouse, J774A.1 macrophage cells
in vitro = details: mouse
[3] = promastigote forms, 48 h treatment, MTT

SMILES | SI (Selectivity Index = CC50 drug/IC50 drug) ([1]; CC50 J774 macrophages / IC50 L. amazonensis promastigotes) | IC50 [1, 3] [µg/mL] | CC50 at 48 h [2] [µg/mL] | IC50 ([1]; 48 h) [µg/mL] | CC50 (in vitro) [µg/mL] | SI (Selectivity Index = CC50 drug/IC50 drug) [1]
COc1ccc2c(c1O)[C@@H]1Cc3cc4c(cc3CN1CC2)OCO4 [Compound 1] | 284.55 | 0.18 (≈ 0.553 µM) | 51.2 (≈ 157 µM) |  |  | 
COc1cc2c(cc1OC)C13CC(OC)C(=O)C=C1CCN3CC2 (stereo not drawn) [Compound 9, Erythratidinone] |  |  |  | > 1000 | > 1000 | 
CO[C@H]1C=CC2=CCN3CCc4cc5c(cc4[C@]23C1)OCO5 [Compound 3, erythraline] |  |  |  | 65.3 (≈ 220 µM) | 69.3 (≈ 233 µM) | 1.06
COc1cc2c(cc1O)[C@]13C[C@@H](OC)C=CC1=CCN3CC2 [Compound 8, Erysovine] |  |  |  | > 1000 | > 1000 | 
COc1cc2c(cc1OC)CN1CCc3ccc(OC)c(O)c3[C@@H]1C2 [Compound 2] |  | > 1000 | 96.6 (≈ 283 µM) |  |  | 
C[C@@H]1[C@H](O)[C@@H](C)/C=C/C=C/C=C/C=C/C=C/C=C/C=C/[C@H](O[C@@H]2O[C@H](C)[C@@H](O)[C@H](N)[C@@H]2O)C[C@@H]2O[C@](O)(C[C@@H](O)C[C@@H](O)[C@H](O)CC[C@@H](O)C[C@@H](O)CC(=O)O[C@H]1C)C[C@H](O)[C@H]2C(=O)O [Amphotericin B, reference compound] |  | 0.2 (≈ 0.216 µM) |  |  |  | 
COC1C=CC2=CC(=O)N3C=Cc4cc5c(cc4C23C1)OCO5 (stereo not drawn) [Compound 6, Crystamidine] |  | 71.5 (≈ 231 µM) |  |  | 59 (≈ 191 µM) | 0.82
COC1C=CC2=CC(=O)N3CCc4cc5c(cc4C23C1)OCO5 (stereo not drawn) [Compound 4, 8-oxoerythraline] |  | > 1000 |  |  | > 1000 | 
COC1C=CC2=CCN3CC(O)c4cc5c(cc4C23C1)OCO5 (stereo not drawn) [Compound 7, Erythrinine] |  |  |  | 39.5 (≈ 126 µM) | 60 (≈ 191 µM) | 1.52

Source: publication PMC6271856, “Leishmanicidal Evaluation of Tetrahydroprotoberberine and Spirocyclic Erythrina-Alkaloids” (Molecules, 2014)
